Entries after “also recorded” stand apart in the source; their conditions may differ. Square brackets hold non-standard residues; d marks the D form. Peptide text beside a SMILES is read from it.
Tests used:
[1] = system: Sprague-Dawley rats; experiment: 30 minute inhibitor pre-treatment before 5.5 mg/kg Delt-E post hemorrhage injection; format: in vivo, rat; conditions: for Maximum HR in BPM ± S.E. / Maximum MAP in mmHg ± S.E. / Survival Time in minutes ± S.E.: then 5.5 mg/kg Delt-E post hemorrhage
Description: The hemorrhagic shock model used was a volume-controlled model similar to that of Summers et al. Acad Emerg Med. 10:587-93 (2003). Forty-six male Sprague-Dawley rats (about 341-411 grams) were acclimated to a laboratory environment for a week. In dwelling heparinized PE 10 catheters were placed in the femoral artery and the femoral vein of anesthetized rats. The two catheters were combined and exited suprascapularly, tied in place with braided silk, and covered with a piece of hypoallergenic mesh to prevent kinking. Rats were then placed in recovery cages for 24 hr, allowed access to food and water, and allowed unrestricted access to both catheters. The femoral artery catheter was used for volume-controlled hemorrhage and blood pressure measurements and the femoral vein catheter was used for Delt-E infusion. Each selected animal was randomly assigned 1 of […] post hemorrhage treat groups: 1 mL/100 g saline control (n=6), 2.85 mg/kg Delt-E (n=6), 4.2 mg/kg Delt-E (n=6), 5.5 mg/kg Delt-E (n=6), and 14 mg/kg Delt-E (n=6). Animals were also selected and randomly assigned to 1 of 4, 30-minute pre-treatment inhibitor groups: Naltriben Methane Sulfonate (NTB) (n=4), Naltrexone (n=4), Glibenclamide (n=4), and 7-Dehydrobenzylidine naltrexone (BNTX) (n=4) followed by a 5.5 mg/kg injection of Delt-E.
Opioid Inhibitors: The opioid inhibitors (naltrexone, naltriben methane sulfonate (NTB) and 7 Dehydrobenzylidine naltrexone (BNTX) and Glibenclamide were administered 30 minutes prior to hemorrhage. MAP and HR were recorded continuously before hemorrhage to ensure no adverse affects on MAP or HR occurred as a result of the pre-injection. At the end of 30 minutes, volume-controlled hemorrhage was induced followed by a post hemorrhage injection of 5.5 mg/kg Delt-E, the optimal dose found to increase hemodynamic stability. Naltrexone (10 mg/kg, Sigma-Aldrich), NTB (1 mg/kg, Sigma-Aldrich), and BNTX (1 mg/kg, Tocris Bioscience) were used as 30 minute pre-injection opioid receptor antagonists. Glibenclamide (10 mg/kg, Sigma Aldrich) was used as a KATP channel blocker.
Data Analysis: Statistical analysis was preformed using SPSS software with P value <0.05 being considered significant. The survival, MAP, HR and lactic acid values were analyzed using repeated measures analysis of variance (ANOVA) between groups to identify differences between groups. To evaluate differences between means, the ANOVA with post hoc least square differences were used (LSD analysis).

[2] = system: Sprague-Dawley rats; experiment: Post hemorrhage Delt-E infusion, volume-controlled hemorrhagic shock model without fluid resuscitation; format: in vivo, rat; conditions: 14.0 mg/kg i.v. post hemorrhage
Description: A murine hemorrhagic shock model was used to evaluate the effects of administration of Deltorphin-E (Delt-E), without concomitant fluid resuscitation, on hemodynamic status, plasma lactate levels, and survival rates.
The hemorrhagic shock model used was a volume-controlled model similar to that of Summers et al. Acad Emerg Med. 10:587-93 (2003). Forty-six male Sprague-Dawley rats (about 341-411 grams) were acclimated to a laboratory environment for a week. In dwelling heparinized PE 10 catheters were placed in the femoral artery and the femoral vein of anesthetized rats. […]
Treatment: Twenty-four hours after catheter placement, test rats (n=24) were infused in the femoral vein with either 2.85, 4.2, 5.5 or 14 mg/kg of Delt-E (Tyr-D-Ala-Phe-Ala-Ile-Gly-Asp-Phe-Ser-Ile-NH2; SEQ ID NO: 1) dissolved in 1.0 ml Lactated Ringers (LR) solution pH 7.4. […] Prior to hemorrhage MAP and HR were recorded to establish baseline levels. […] After the final mL of blood was removed the various venous catheter treatment injections were administered, MAP and HR were recorded continuously for the duration of survival or up to 6 hours.
Biomarker protocols: Survival time was determined by the post hemorrhage time after injection until death, or a predetermined 360 minute survival interval. […] Pulse pressure was determined by the difference (mmHg) between the systolic and diastolic pressure during a single cardiac cycle. […]

[3] = system: KATP channels; conditions: Wild et al. 1991; cited from earlier work
[4] = inhibitor 1 mg/kg 30 min prior to hemorrhage
[5] = inhibitor 10 mg/kg 30 min prior to hemorrhage

Row | Molecule | blockade of post hemorrhage hemodynamic recovery / survival benefits of 5.5 mg/kg Delt-E [1, 4] | Maximum HR in BPM ± S.E. [1, 4] | Maximum MAP in mmHg ± S.E. [1, 4] | Survival Time in minutes ± S.E. [1, 4] | blockade of post hemorrhage hemodynamic recovery / survival benefits of 5.5 mg/kg Delt-E [1, 5] | Maximum HR in BPM ± S.E. [1, 5] | Maximum MAP in mmHg ± S.E. [1, 5] | Survival Time in minutes ± S.E. [1, 5] | further results
1 | O=C1/C(=C/c2ccccc2)C[C@@]2(O)[C@H]3Cc4ccc(O)c5c4[C@@]2(CCN3CC2CC2)[C@H]1O5 [BNTX, 7-Dehydrobenzylidine naltrexone] | did not block | 400 ± 77 BPM | 55 ± 12 mmHg | 356 ± 3 min | – | – | – | – | –
2 | CC[C@H](C)[C@H](NC(=O)[C@H](CO)NC(=O)[C@H](Cc1ccccc1)NC(=O)[C@H](CC(=O)O)NC(=O)CNC(=O)[C@@H](NC(=O)[C@H](C)NC(=O)[C@H](Cc1ccccc1)NC(=O)[C@@H](C)NC(=O)[C@@H](N)Cc1ccc(O)cc1)[C@@H](C)CC)C(N)=O [Delt-E, Tyr-(D-Ala)-Phe-Ala-Ile-Gly-Asp-Phe-Ser-Ile-NH2] (H-Y[dA]FAIGDFSI-NH2) | – | – | – | – | – | – | – | – | Toxicity of dose [2]: toxic
3 | COc1ccc(Cl)cc1C(=O)NCCc1ccc(S(=O)(=O)NC(=O)NC2CCCCC2)cc1 [Glibenclamide] | – | – | – | – | did not alter the survival advantage; also recorded: not blocked | 393 ± 43 BPM | 56 ± 10 mmHg | 347 ± 15 min | –
4 | Oc1ccc2c3c1O[C@H]1c4oc5ccccc5c4C[C@@]4(O)[C@@H](C2)N(CC2CC2)CC[C@]314 [NTB, Naltriben Methane Sulfonate] | blocked | 423 ± 68 BPM | 37 ± 13 mmHg | 58 ± 12 min | – | – | – | – | –
5 | O=C1CC[C@@]2(O)[C@H]3Cc4ccc(O)c5c4[C@@]2(CCN3CC2CC2)[C@H]1O5 [Naltrexone] | – | – | – | – | partially blocked | 419 ± 75 BPM | 49 ± 8 mmHg | 95 ± 11 min | –
6 | DPDPE | – | – | – | – | – | – | – | – | cardioprotective effect in the presence of Glibenclamide [3]: could be negated by Glibenclamide
